# pIC50: −log10 of the molar value.
# Target: JNK3 (Homo sapiens, UniProt P53779)
# Test: Measurement of JNK3 enzyme activity
# Format: biochemical
# Excerpt: Experimental Example 1. Measurement of JNK3 Enzyme Activity
# JNK3, sequence (P53779 whole entry, species assumed): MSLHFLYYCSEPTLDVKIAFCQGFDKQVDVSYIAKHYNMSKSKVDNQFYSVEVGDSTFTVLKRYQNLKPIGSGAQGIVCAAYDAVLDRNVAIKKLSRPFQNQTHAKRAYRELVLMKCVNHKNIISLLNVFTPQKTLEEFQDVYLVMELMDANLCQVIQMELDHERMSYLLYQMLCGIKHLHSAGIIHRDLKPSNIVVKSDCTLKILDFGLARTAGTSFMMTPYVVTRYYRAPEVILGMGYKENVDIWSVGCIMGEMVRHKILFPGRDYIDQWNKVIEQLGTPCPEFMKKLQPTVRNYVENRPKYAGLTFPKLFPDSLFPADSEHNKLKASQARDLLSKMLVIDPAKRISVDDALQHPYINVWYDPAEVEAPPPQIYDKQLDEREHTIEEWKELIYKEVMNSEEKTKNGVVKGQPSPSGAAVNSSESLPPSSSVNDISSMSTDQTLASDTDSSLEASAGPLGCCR
smiles,measurement,setting,value
"NC(=O)C1Cc2nc(-c3ccc4ccccc4c3)n(-c3ccnc(N[C@H]4CCN(C(=O)C5CC5)C4)n3)c2C1 (stereo partly drawn) [Compound 20c, 1-(2-(((S)-1-(cyclopropanecarbonyl)pyrrolidine-3-yl)amino)pyrimidin-4-yl)-2-(naphthalen-2-yl)-1,4,5,6-tetracyclopenta[d]imidazol-5-carboxamide]",pIC50,Table 3,> 7.52
"CCOC(=O)C1Cc2nc(-c3ccc4c(c3)OCO4)n(-c3ccnc(N[C@@H]4CCCN(C(=O)C5CC5)C4)n3)c2C1 (stereo partly drawn) [Compound 19d, ethyl 2-(benzo[d][1,3]dioxol-5-yl)-1-(2-(((R)-1-(cyclopropanecarbonyl)piperidin-3-yl)amino)pyrimidin-4-yl)-1,4,5,6-tetracyclopenta[d]imidazol-5-carboxylate]",pIC50,Table 4,> 7.52
"NC(=O)C1Cc2nc(-c3ccc4ccccc4c3)n(-c3ccnc(N[C@H]4CCCN(C(=O)C5CC5)C4)n3)c2C1 (stereo partly drawn) [Compound 22c, 1-(2-(((S)-1-(cyclopropanecarbonyl)piperidin-3-yl)amino)pyrimidin-4-yl)-2-(naphthalen-2-yl)-1,4,5,6-tetracyclopenta[d]imidazol-5-carboxamide]",pIC50,Table 3,> 7.52
"CCOC(=O)C1Cc2nc(-c3ccc4c(c3)OCO4)n(-c3ccnc(N[C@H]4CCN(C(=O)C5CC5)C4)n3)c2C1 (stereo partly drawn) [Compound 16d, ethyl 2-(benzo[d][1,3]dioxol-5-yl)-1-(2-(((S)-1-(cyclopropanecarbonyl)pyrrolidine-3-yl)amino)pyrimidin-4-yl)-1,4,5,6-tetracyclopenta[d]imidazol-5-carboxylate]",pIC50,Table 4,< 6.00
"CNC(=O)C1Cc2nc(-c3ccc(F)c(C(F)(F)F)c3)n(-c3ccnc(N[C@H]4CCN(C(=O)C5CC5)C4)n3)c2C1 (stereo partly drawn) [Compound 24a, 1-(2-(((S)-1-(cyclopropanecarbonyl)pyrrolidine-3-yl)amino)pyrimidin-4-yl)-2-(4-fluoro-3-(trifluoromethyl)phenyl)-N-methyl-1,4,5,6-tetracyclopenta[d]imidazol-5-carboxamide]",pIC50,Table 1,< 6.00
"NC(=O)C1Cc2nc(-c3ccc4c(c3)CCO4)n(-c3ccnc(N[C@@H]4CCN(C(=O)C5CC5)C4)n3)c2C1 (stereo partly drawn) [Compound 21e, 1-(2-(((R)-1-(cyclopropanecarbonyl)pyrrolidine-3-yl)amino)pyrimidin-4-yl)-2-(2,3-dihydrobenzofuran-5-yl)-1,4,5,6-tetracyclopenta[d]imidazol-5-carboxamide]",pIC50,Table 5,> 7.52
"CNC(=O)C1Cc2nc(-c3ccc(F)c(C(F)(F)F)c3)n(-c3ccnc(N[C@@H]4CCN(C(=O)C5CC5)C4)n3)c2C1 (stereo partly drawn) [Compound 25a, 1-(2-(((R)-1-(cyclopropanecarbonyl)pyrrolidine-3-yl)amino)pyrimidin-4-yl)-2-(4-fluoro-3-(trifluoromethyl)phenyl)-N-methyl-1,4,5,6-tetracyclopenta[d]imidazol-5-carboxamide]",pIC50,Table 1,< 6.00
CNC(=O)C1Cc2nc(-c3ccc4c(c3)OCO4)n(-c3ccnc(N[C@@H]4CCN(C(=O)C5CC5)C4)n3)c2C1 (stereo partly shown) [Compound 25d],pIC50,Table 4,> 7.52
"NC(=O)C1Cc2nc(-c3ccc(Cl)c(Cl)c3)n(-c3ccnc(N[C@@H]4CCCN(C(=O)C5CC5)C4)n3)c2C1 (stereo partly drawn) [Compound 23b, 1-(2-(((R)-1-(cyclopropanecarbonyl)piperidin-3-yl)amino)pyrimidin-4-yl)-2-(3,4-dichlorophenyl)-1,4,5,6-tetracyclopenta[d]imidazol-5-carboxamide]",pIC50,Table 2,> 7.52
"CCOC(=O)C1Cc2nc(-c3ccc4ccccc4c3)n(-c3ccnc(N[C@H]4CCN(C(=O)C5CC5)C4)n3)c2C1 (stereo partly drawn) [Compound 16c, ethyl 1-(2-(((S)-1-(cyclopropanecarbonyl)pyrrolidine-3-yl)amino)pyrimidin-4-yl)-2-(naphthalen-2-yl)-1,4,5,6-tetracyclopenta[d]imidazol-5-carboxylate]",pIC50,Table 3,> 7.52
"CCOC(=O)C1Cc2nc(-c3ccc4ccccc4c3)n(-c3ccnc(N[C@H]4CCCN(C(=O)C5CC5)C4)n3)c2C1 (stereo partly drawn) [Compound 18c, ethyl 1-(2-(((S)-1-(cyclopropanecarbonyl)piperidin-3-yl)amino)pyrimidin-4-yl)-2-(naphthalen-2-yl)-1,4,5,6-tetracyclopenta[d]imidazol-5-carboxylate]",pIC50,Table 3,> 7.52
"NC(=O)C1Cc2nc(-c3ccc(F)c(C(F)(F)F)c3)n(-c3ccnc(N[C@H]4CCN(C(=O)C5CC5)C4)n3)c2C1 (stereo partly drawn) [Compound 20a, 1-(2-(((S)-1-(cyclopropanecarbonyl)pyrrolidine-3-yl)amino)pyrimidin-4-yl)-2-(4-fluoro-3-(trifluoromethyl)phenyl)-1,4,5,6-tetracyclopenta[d]imidazol-5-carboxamide]",pIC50,Table 1,< 6.00
"CCOC(=O)C1Cc2nc(-c3ccc4c(c3)CCO4)n(-c3ccnc(N[C@@H]4CCN(C(=O)C5CC5)C4)n3)c2C1 (stereo partly drawn) [Compound 17e, ethyl 1-(2-(((R)-1-(cyclopropanecarbonyl)pyrrolidine-3-yl)amino)pyrimidin-4-yl)-2-(2,3-dihydrobenzofuran-5-yl)-1,4,5,6-tetracyclopenta[d]imidazol-5-carboxylate]",pIC50,Table 5,> 7.52
"CCOC(=O)C1Cc2nc(-c3ccc(Cl)c(Cl)c3)n(-c3ccnc(N[C@@H]4CCCN(C(=O)C5CC5)C4)n3)c2C1 (stereo partly drawn) [Compound 19b, ethyl 1-(2-(((R)-1-(cyclopropanecarbonyl)piperidin-3-yl)amino)pyrimidin-4-yl)-2-(3,4-dichlorophenyl)-1,4,5,6-tetracyclopenta[d]imidazol-5-carboxylate]",pIC50,Table 2,> 7.52
"CNC(=O)C1Cc2nc(-c3ccc4ccccc4c3)n(-c3ccnc(N[C@H]4CCCN(C(=O)C5CC5)C4)n3)c2C1 (stereo partly drawn) [Compound 26c, 1-(2-(((S)-1-(cyclopropanecarbonyl)piperidin-3-yl)amino)pyrimidin-4-yl)-2-(naphthalen-2-yl)-N-methyl-1,4,5,6-tetracyclopenta[d]imidazol-5-carboxamide]",pIC50,Table 3,> 7.52
"CNC(=O)C1Cc2nc(-c3ccc4c(c3)OCO4)n(-c3ccnc(NC4CCN(C(=O)C5CC5)C4)n3)c2C1 (single isomer, unassigned) [Compound 24d]",pIC50,Table 4,< 6.00
"CCOC(=O)C1Cc2nc(-c3ccc4c(c3)CCO4)n(-c3ccnc(N[C@H]4CCN(C(=O)C5CC5)C4)n3)c2C1 (stereo partly drawn) [Compound 16e, ethyl 1-(2-(((S)-1-(cyclopropanecarbonyl)pyrrolidine-3-yl)amino)pyrimidin-4-yl)-2-(2,3-dihydrobenzofuran-5-yl)-1,4,5,6-tetracyclopenta[d]imidazol-5-carboxylate]",pIC50,Table 5,< 6.00
"CCOC(=O)C1Cc2nc(-c3ccc4ccccc4c3)n(-c3ccnc(N[C@@H]4CCCN(C(=O)C5CC5)C4)n3)c2C1 (stereo partly drawn) [Compound 19c, ethyl 1-(2-(((R)-1-(cyclopropanecarbonyl)piperidin-3-yl)amino)pyrimidin-4-yl)-2-(naphthalen-2-yl)-1,4,5,6-tetracyclopenta[d]imidazol-5-carboxylate]",pIC50,Table 3,> 7.52
"NC(=O)C1Cc2nc(-c3ccc(F)c(C(F)(F)F)c3)n(-c3ccnc(NC4CCCN(C(=O)C5CC5)C4)n3)c2C1 (single isomer, unassigned) [Compound 23a]",pIC50,Table 1,< 6.00

# Reference: patent US20240299386A1, “Novel imidazole derivatives having protein kinase inhibitory activity and uses thereof” (INDUSTRY-UNIVERSITY COOPERATION FOUNDATION HANYANG …, priority 2021, published 2024)
